{"source": "patent US11667675B2", "about": "“MASP inhibitory compounds and uses thereof” (Bayer Aktiengesellschaft, priority 2019, dated 2023)", "key": {"Human C3-[…]": {"test_system": "Human C3-[…]", "experiment": "C3 deposition assay, human serum on mannan-coated plates", "format": "biochemical", "conditions": "average IC50, read-out: Human C3-DEPOSITION SERUM IC50", "protocol": "3. C3 Deposition Assay (Human, Rat, Mouse, Dog, Mini-Pig)\nThe C3 deposition assay was conducted essentially as described (reference). Multi well plates (Greiner-Nunc 384 Maxi Sorp #464718) were coated over night with Mannan from Saccharomyces cerevisiae (Sigma M7504, 10 μg/mL in 0.05 M carbonate-bicarbonate buffer, pH 9.6) at 4° C. Wells were washed three times with TBS and subsequently incubated for 2 hours with 50 μL of 1% bovine serum albumin (BSA) in Tris-buffered saline (TBS) at 37° C. in order to block non-specific binding. After this step and each of the following incubation steps wells were washed three times with C3 wash buffer (TBS; 0.05% Tween 20; 5 mM CaCl2). […] When appropriately developed the color reaction was stopped by addition of 25 μL of stop solution (Sigma S5814) and quantified on a photometer by measuring absorption at a wavelength of 450 nm. Antibodies were diluted in C3 wash buffer supplemented with 0.5% BSA."}, "rat MASP1": {"biological_target": "T1, rat MASP1 (Rattus norvegicus, UniProt Q8CHN8)", "T1 construct": "Ig-kappa secretion signal (N, cleaved yes); made in house; host or cells: HEK293 (ATCC No. CRL-1573)", "T1 sequence (Q8CHN8 302-453 limits assumed)": "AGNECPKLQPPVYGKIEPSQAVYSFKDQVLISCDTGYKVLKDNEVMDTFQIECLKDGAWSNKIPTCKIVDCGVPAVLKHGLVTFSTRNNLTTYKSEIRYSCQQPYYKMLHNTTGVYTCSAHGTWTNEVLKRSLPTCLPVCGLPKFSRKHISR", "T1 sequence (Q8CHN8 454-704 limits assumed)": "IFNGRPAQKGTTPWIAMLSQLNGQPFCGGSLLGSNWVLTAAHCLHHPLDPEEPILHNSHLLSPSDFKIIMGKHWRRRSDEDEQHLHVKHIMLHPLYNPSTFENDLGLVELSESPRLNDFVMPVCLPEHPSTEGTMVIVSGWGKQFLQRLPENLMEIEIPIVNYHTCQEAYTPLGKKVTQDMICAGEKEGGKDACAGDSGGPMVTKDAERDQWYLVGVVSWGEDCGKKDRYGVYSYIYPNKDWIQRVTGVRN", "experiment": "Biochemical rat MASP1 assay (FRET substrate)", "conditions": "average IC50; recombinant rat MASP1, FRET substrate", "source_text": "(§1) 4. Biochemical Rat MASP-1 and MASP-2 Assay\n(§2) 4.1 Recombinant Expression and Protein Production of Recombinant Human and Rat MASP1 and MASP2 Active Proteases.\nA truncated cDNA sequence of rat MASP1 encoding the fragment corresponding to the amino acids 302-704 with an C-terminal His Tag and N-terminal Ig-kappa secretion signal (SEQ ID No: 4) was subcloned into the mammalian expression vector pcDNA3.1 (Invitrogen).\n(§3) The MASP1 or MASP2 expression vectors were transfected into the HEK293 (ATCC No. CRL-1573) cell line using Lipofectamine LTX® Reagent (Thermo-Fischer), as described by the manufacturer. The mature form of the recombinant rat MASP1 and MASP2 proteases were secreted into the culture medium. The MASP1 and MASP2 proteins were purified from the conditioned media by affinity chromatography on Ni-NTA Superflow resin (Qiagen) as described by the manufacturer.\n4.2 Biochemical Rat MASP1 Assay.\nRecombinant rat MASP1 enzyme produced in the HEK 293 cells was diluted in the reaction buffer (50 mM HEPES pH 8,0; 100 mM NaCl; 0.01% CHAPS; 0.5 mM Gluthathione) to the concentration of 4 nM and 25 μl was transferred into each single well of 384-well white microtiter plate (Greiner Bio One 781075). 1 μl of the inhibitor compound solution (dissolved in DMSO, at the corresponding concentration) or pure DMSO as a control was added to the same wells. The enzymatic reaction was initiated by addition of 25 μl of 40 μM solution of the FRET substrate Dabcyl-[…]-Glu(Edans)-NH2 (SEQ ID NO: 8); (Dabcyl—4-((4-(dimethylamino)phenyl)azo)benzoic acid; Edans—5-[(2-Aminoethyl) amino]naphthalene-1-sulfonyl; custom synthesis by Jerini Peptide Technologies, Berlin) in the reaction buffer. The microtiter plate was incubated for 60-120 min at the temperature of 32 C. The increase of fluorescence intensity was measured in appropriate fluorescence plate reader (e.g. TECAN Ultra) using excitation wavelength of 340 nm and emission wavelength of 490 nm. IC50 values were calculated from percentage of inhibition of rat […] activity as a function of test compound concentration."}, "rat MASP2": {"biological_target": "T2, rat MASP2 (Rattus norvegicus, UniProt Q9JJS8)", "T2 construct": "Ig-kappa secretion signal (N, cleaved yes); made in house; host or cells: HEK293 (ATCC No. CRL-1573)", "T2 sequence (Q9JJS8 296-443)": "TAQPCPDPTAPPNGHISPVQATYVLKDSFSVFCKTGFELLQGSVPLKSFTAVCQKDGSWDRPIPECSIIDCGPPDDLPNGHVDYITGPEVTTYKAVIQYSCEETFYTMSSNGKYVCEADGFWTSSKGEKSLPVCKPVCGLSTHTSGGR", "T2 sequence (Q9JJS8 444-685)": "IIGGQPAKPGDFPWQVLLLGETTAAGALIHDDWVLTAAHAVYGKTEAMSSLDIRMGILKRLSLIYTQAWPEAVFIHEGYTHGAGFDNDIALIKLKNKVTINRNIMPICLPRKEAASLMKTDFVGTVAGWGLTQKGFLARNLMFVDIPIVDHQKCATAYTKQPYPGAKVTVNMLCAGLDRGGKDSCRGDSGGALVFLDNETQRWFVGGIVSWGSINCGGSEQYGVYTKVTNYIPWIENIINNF", "experiment": "Biochemical rat MASP2 assay (FRET substrate)", "conditions": "average IC50; recombinant rat MASP2, FRET substrate", "source_text": "as §1, §2, §3\n4.3 Biochemical Rat MASP2 Assay.\nRecombinant rat MASP2 enzyme produced in the HEK 293 cells was diluted in the reaction buffer (50 mM HEPES pH 8,0; 100 mM NaCl; 0.01% CHAPS; 0.5 mM Gluthathione) to the concentration of 20 nM and 25 μl was transferred into each single well of 384-well white microtiter plate (Greiner Bio One 781075). 1 μl of the inhibitor compound solution (dissolved in DMSO, at the corresponding concentration) or pure DMSO as a control was added to the same wells. The enzymatic reaction was initiated by addition of 25 μl of 30 μM solution of the FRET substrate Abz-IEGRTSED-(Lys)Dnp-NH2 (SEQ ID NO: 9); (ABZ—2-aminobenzoyl; DNP_2,4-dinitrophenyl; custom synthesis by Jerini Peptide Technologies, Berlin) in the reaction buffer. The microtiter plate was incubated for 60-120 min at the temperature of 32 C. The increase of fluorescence intensity was measured in appropriate fluorescence plate reader (e.g. TECAN Ultra) using excitation wavelength of 320 nm and emission wavelength of 420 nm. IC50 values were calculated from percentage of inhibition of rat […] activity as a function of test compound concentration."}}, "note": "Counter-ions that a name gives are not always drawn. Numbered stars: 1 amine (or outer) side, 2 acyl side, 3 side chain; on linkers, the order of the positions; unused ones are H or OH. Bridge positions count the residues as written; N and C are the ends. Square brackets hold non-standard residues; d marks the D form. Peptide text beside a SMILES is read from it. * marks the point of attachment. X1 = O=C(C1[C@H]2CCCC[C@H]2C[C@H]1C(=O)[*:2])[C@@H]1CCCN1[*:1]; Oic = O=C(O)[C@@H]1C[C@@H]2CCCC[C@@H]2N1; Pen = CC(C)(S)[C@H](N)C(=O)O; X2 = N[C@@H](CN*)C(=O)O; Sar = CNCC(=O)O", "data": [{"compound": "CC[C@H](C)[C@H](NC(=O)[C@H](C)NC)C(=O)N[C@H]1CSSC(C)(C)[C@@H](C(=O)N[C@H](C(=O)N2CCC[C@H]2C(N)=O)[C@@H](C)CC)NC(=O)[C@H]([C@@H](C)CC)NC(=O)[C@@H]2C[C@@]3(CN2C(=O)[C@@H]2CCCN2C(=O)[C@@H](CC(C)(C)C)NC(=O)[C@H](CO)NC(=O)[C@H](CCCNC(=N)N)NC(=O)[C@H](CO)NC1=O)CC3(F)F", "note": "(single isomer, unassigned; enantiomer 1) [Example 443]", "values": [{"measurement": "IC50", "setting": "Human C3-[…]", "result": 25.2, "unit": "nM"}, {"measurement": "IC50", "setting": "rat MASP1", "result": 29, "unit": "nM"}, {"measurement": "IC50", "setting": "rat MASP2", "result": 4.7, "unit": "nM"}]}, {"compound": "CC[C@H](C)[C@H](NC(=O)CNC)C(=O)N[C@H]1CSSC(C)(C)[C@@H](C(=O)N[C@H](C(=O)N2CCC[C@H]2C(N)=O)[C@@H](C)CC)NC(=O)[C@H]([C@@H](C)CC)NC(=O)[C@@H]2C[C@@H]3CCCC[C@@H]3C2C(=O)[C@@H]2CCCN2C(=O)[C@H](CC(C)C)NC(=O)[C@H](CO)NC(=O)[C@H](CCCNC(=N)N)NC(=O)[C@H](CO)NC1=O", "note": "(stereo partly drawn) [Example 67, ((N-Me)G)-IC+SRSLP-(Oic)-I-(Pen)+IP-NH2 (HCl Salt)] (H-[Sar]ICSRSL[X1]I[Pen]IP-NH2; disulfide 3-10)", "values": [{"measurement": "IC50", "setting": "Human C3-[…]", "result": 121, "unit": "nM"}, {"measurement": "IC50", "setting": "rat MASP1", "result": 72, "unit": "nM"}, {"measurement": "IC50", "setting": "rat MASP2", "result": 36, "unit": "nM"}]}, {"compound": "CC[C@H](C)[C@H](NC(=O)CNC)C(=O)N[C@H]1CSSC(C)(C)[C@@H](C(=O)N[C@H](C(=O)N2CCC[C@H]2C(N)=O)[C@@H](C)CC)NC(=O)[C@H]([C@@H](C)CC)NC(=O)[C@@H]2C[C@@H]3CCCC[C@@H]3N2C(=O)[C@@H]2CCCN2C(=O)[C@H](CC(C)C)NC(=O)[C@H](CO)NC(=O)[C@H](CCCNC(=N)N)NC(=O)[C@H](CO)NC1=O", "note": "[Example 109, ((N-Me)G)-IC+SRSLP-(Oic)-I-(Pen)+IP-NH2] (H-[Sar]ICSRSLP[Oic]I[Pen]IP-NH2; disulfide 3-11)", "values": [{"measurement": "IC50", "setting": "Human C3-[…]", "result": 135, "unit": "nM"}, {"measurement": "IC50", "setting": "rat MASP1", "result": 76, "unit": "nM"}, {"measurement": "IC50", "setting": "rat MASP2", "result": 42, "unit": "nM"}]}, {"compound": "[2H][C@@H]1[C@H]([2H])CN2C(=O)[C@H](CC(C)C)NC(=O)[C@H](CO)NC(=O)[C@H](CCCNC(=N)N)NC(=O)[C@H](CO)NC(=O)[C@@H](NC(=O)[C@@H](NC(=O)[C@H](C)N)[C@@H](C)CC)CSSC(C)(C)[C@@H](C(=O)N[C@H](C(=O)N3CCC[C@H]3C(=O)N[C@@H](CC(=O)O)C(=O)O)[C@@H](C)CC)NC(=O)[C@H]([C@@H](C)CC)NC(=O)[C@@H]3C[C@@H]4CCCC[C@@H]4N3C(=O)[C@H]12", "note": "[Example 142, N-[(1R,2S,6S,9S,12S,15S,18R,23R,26S,28aS,35aS)-18-[(L-alanyl-L-isoleucyl)amino]-26-[(2S)-butan-2-yl]-12-(3-carbamimidamidopropyl)-9,15-bis(hydroxymethyl)-22,22-dimethyl-6-(2-methylpropyl)-5,8,11,14,17,25,28,35-octaoxo(1,2-^2H2)dotriacontahydro-1H,5H,22H-pyrrolo[2′,1′:13,14][1,2,5,8,11,14,17,20,23,26]dithiaoctaazacyclononacosino[11,10-a]indole-23-carbonyl]-L-isoleucyl-L-prolyl-L-aspartic Acid]", "values": [{"measurement": "IC50", "setting": "Human C3-[…]", "result": 12.4, "unit": "nM"}, {"measurement": "IC50", "setting": "rat MASP1", "result": 10.9, "unit": "nM"}, {"measurement": "IC50", "setting": "rat MASP2", "result": 17.1, "unit": "nM"}]}, {"compound": "CC[C@H](C)[C@H](NC(=O)[C@H](C)N)C(=O)N[C@H]1CSSC[C@@H](C(=O)N[C@H](C(=O)N2CCC[C@H]2C(=O)N[C@@H](CC(=O)O)C(N)=O)[C@@H](C)CC)N(C)C(=O)[C@H]([C@@H](C)CC)NC(=O)[C@@H]2C[C@@H]3CCCC[C@@H]3N2C(=O)[C@@H]2CCCN2C(=O)[C@H](CC(C)C)NC(=O)[C@H](CO)NC(=O)[C@H](CCCNC(=N)N)NC(=O)[C@H](CO)NC1=O", "note": "[Example 185, AIC+SRSLP-(Oic)-I-((N-Me)C)+IPD-NH2]", "values": [{"measurement": "IC50", "setting": "Human C3-[…]", "result": 6.74, "unit": "nM"}, {"measurement": "IC50", "setting": "rat MASP1", "result": 57, "unit": "nM"}, {"measurement": "IC50", "setting": "rat MASP2", "result": 10.9, "unit": "nM"}]}, {"compound": "CC[C@H](C)[C@H](NC(=O)CNC)C(=O)N[C@H]1CSSC(C)(C)[C@@H](C(=O)N[C@H](C(=O)N2CCC[C@H]2C(=O)N[C@@H](CC(=O)O)C(=O)N[C@@H](CC(=O)O)C(=O)O)[C@@H](C)CC)NC(=O)[C@H]([C@@H](C)CC)NC(=O)[C@@H]2C[C@@H]3CCCC[C@@H]3N2C(=O)[C@@H]2CCCN2C(=O)[C@H](CC(C)C)NC(=O)[C@H](CO)NC(=O)[C@H](CCCNC(=N)N)NC(=O)[C@H](CO)NC1=O", "note": "[Example 466, ((N-Me)G)-IC+SRSLP-(Oic)-I-(Pen)+IPDD-OH] (H-[Sar]ICSRSLP[Oic]I[Pen]IPDD-OH; disulfide 3-11)", "values": [{"measurement": "IC50", "setting": "Human C3-[…]", "result": 71.6, "unit": "nM"}, {"measurement": "IC50", "setting": "rat MASP1", "result": 17.6, "unit": "nM"}, {"measurement": "IC50", "setting": "rat MASP2", "result": 72, "unit": "nM"}]}, {"compound": "CC[C@H](C)[C@H](NC(=O)CNC)C(=O)N[C@H]1CSSC(C)(C)[C@@H](C(=O)N[C@H](C(=O)N2CCC[C@H]2C(=O)NC[C@H](N)C(=O)O)[C@@H](C)CC)NC(=O)[C@H]([C@@H](C)CC)NC(=O)[C@@H]2C[C@@H]3CCCC[C@@H]3N2C(=O)[C@@H]2CCCN2C(=O)[C@H](CC(C)C)NC(=O)[C@H](CO)NC(=O)[C@H](CCCNC(=N)N)NC(=O)[C@H](CO)NC1=O", "note": "[Example 467] (H-[Sar]ICSRSLP[Oic]I[Pen]IP-X2; disulfide 3-11)", "values": [{"measurement": "IC50", "setting": "Human C3-[…]", "result": 41.5, "unit": "nM"}, {"measurement": "IC50", "setting": "rat MASP1", "result": 170, "unit": "nM"}, {"measurement": "IC50", "setting": "rat MASP2", "result": 70, "unit": "nM"}]}]}
